Source: ChEMBL document CHEMBL3400133, “Three new fusidic acid derivatives and their antibacterial activity” (2015)
Active and inactive are the calls of the source. No cut-off for these calls is given here.

Tests used:
Staphylococcus aureus [1] = experiment: Antibacterial activity against Staphylococcus aureus ATCC 25923 assessed as inhibition of microbial growth at 0.064 ug/ml to 125 ug/ml incubated at 37 degC for 20 hrs; type: functional; details: ATCC 25923, 20 h
Escherichia coli = experiment: Antibacterial activity against Escherichia coli XL-1 Blue assessed as inhibition of microbial growth at 0.064 ug/ml to 125 ug/ml incubated at 37 degC for 20 hrs; type: functional, organism-based
Staphylococcus aureus [2] = experiment: Antibacterial activity against methicillin-resistant Staphylococcus aureus ATCC 33591 assessed as inhibition of microbial growth at 0.064 ug/ml to 125 ug/ml incubated at 37 degC for 20 hrs; type: functional; details: ATCC 33591, 20 h

SMILES	MIC (Staphylococcus aureus [1])	MIC (Escherichia coli)	MIC (Staphylococcus aureus [2])
CC(=O)O[C@@H]1[C@H]2[C@H](C)[C@H](O)CC[C@]2(C)[C@@H]2CC[C@H]3/C(=C(\CCC=C(C)C)C(=O)O)[C@@H](OC(C)=O)C[C@]3(C)[C@@]2(C)[C@H]1O	8 µg/mL	inactive	8 µg/mL
CC(=O)O[C@H]1C[C@@]2(C)[C@@H](CC[C@H]3[C@@]4(C)CC[C@@H](O)[C@@H](C)[C@@H]4[C@@H](O)[C@H](OC(C)=O)[C@@]32C)/C1=C(\CCC=C(C)C)C(=O)O	64 µg/mL	inactive	125 µg/mL
CC(=O)OC1C[C@@]2(C)[C@@H](CC[C@H]3[C@@]4(C)CCC(=O)[C@@H](C)[C@@H]4[C@@H](O)[C@H](O)[C@@]32C)/C1=C(\CCC=C(C)C)C(=O)O (single isomer, unassigned)	> 125 µg/mL	inactive	> 125 µg/mL
CC(=O)OC1C[C@@]2(C)[C@@H](CC[C@H]3[C@@]4(C)CCC(=O)[C@@H](C)[C@@H]4[C@@H](O)[C@H](OC(C)=O)[C@@]32C)/C1=C(\CCC=C(C)C)C(=O)O (single isomer, unassigned)	64 µg/mL	inactive	> 125 µg/mL
CC(=O)OC1C[C@@]2(C)[C@@H](CC[C@H]3[C@@]4(C)CCC(=O)[C@@H](C)[C@@H]4[C@@H](OC(C)=O)[C@H](O)[C@@]32C)/C1=C(\CCC=C(C)C)C(=O)O (single isomer, unassigned)	4 µg/mL	inactive	8 µg/mL
NC[C@H]1O[C@H](O[C@H]2[C@H](O)[C@@H](O[C@H]3O[C@H](CO)[C@@H](O)[C@H](N)[C@H]3O)[C@H](N)C[C@@H]2N)[C@H](O)[C@@H](O)[C@@H]1O [KANAMYCIN]	2 µg/mL		> 125 µg/mL
